# Reference: US20210255193A1, “LYSINE REACTIVE PROBES AND USES THEREOF” (The Scripps Research Institute, priority 2017, published 2021)
# Experiments:
# Experiment in all cases: competitive isoTOP-ABPP
# Type in all cases: binding
# [1] = target: T1, GABARAPL2 Gamma-aminobutyric acid receptor-associated protei (Homo sapiens, UniProt P60520); conditions: for isoTOP-ABPP ratio (R) at liganded lysine P60520_K46: sol, 231
# T1 construct: isoTOP-ABPP experiments performed in cell lysates (in vitro); endogenous in cells; host or cells: soluble proteome of human cancer cell lines (MDA-MB-231, Ramos, Jurkat)
# Summary of the method: (§1)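 Probe: STP-alkyne, 0.1 mM, 1 h RT, after fragment pretreatment of lysate (esters 50 μM; guanidinylators 100 μM). Tags: light = compound, heavy = DMSO, via CuAAC. Replicates averaged if SD <60% of mean; otherwise lowest ratio used when any R <4.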
# [2] = target: T2, CDK2 Cyclin-dependent kinase 2 (Homo sapiens, UniProt P24941); conditions: for isoTOP-ABPP ratio (R) at liganded lysine P24941_K33: sol, 231; for isoTOP-ABPP ratio, lysine P24941_K33: 50 uM_231_sol_in vitro
# T2 construct: isoTOP-ABPP experiments performed in cell lysates (in vitro); endogenous in cells; host or cells: soluble proteome of human cancer cell lines (MDA-MB-231; Ramos and Jurkat also prepared)
# Summary of the method: as §1
# [3] = target: T3, IMPDH1 Inosine-5-monophosphate dehydrogenase 1 (Homo sapiens, UniProt P20839); conditions: for isoTOP-ABPP ratio (R) at liganded lysine P20839_K208: sol, 231
# T3 construct: isoTOP-ABPP experiments performed in cell lysates (in vitro); endogenous in cells; host or cells: soluble proteome of human cancer cell lines (MDA-MB-231; Ramos and Jurkat also prepared)
# Summary of the method: as §1
# [4] = target: T4, AKR1C3 Aldo-keto reductase family 1 member C3 (Homo sapiens, UniProt P42330); conditions: for isoTOP-ABPP ratio (R) at liganded lysine P42330_K270: sol, 231; for isoTOP-ABPP ratio, lysine P42330_K270: possible other lysine P52895_K270, P17516_K270, Q04828_K270
# T4 construct: isoTOP-ABPP experiments performed in cell lysates (in vitro); endogenous in cells; host or cells: soluble proteome of human cancer cell lines (MDA-MB-231; Ramos and Jurkat also prepared)
# T4 sequence (P42330 1-323): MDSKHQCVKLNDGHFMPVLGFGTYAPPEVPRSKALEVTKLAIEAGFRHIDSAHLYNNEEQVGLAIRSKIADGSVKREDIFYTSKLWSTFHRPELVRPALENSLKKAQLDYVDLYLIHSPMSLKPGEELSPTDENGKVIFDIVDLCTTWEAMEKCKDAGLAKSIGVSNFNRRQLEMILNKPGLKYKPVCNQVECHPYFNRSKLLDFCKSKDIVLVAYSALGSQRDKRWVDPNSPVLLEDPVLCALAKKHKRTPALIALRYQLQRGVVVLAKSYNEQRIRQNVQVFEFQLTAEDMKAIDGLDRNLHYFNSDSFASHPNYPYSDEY
# Summary of the method: as §1
# [5] = target: T5, ATP6V1F V-type proton ATPase subunit F (Homo sapiens, UniProt Q16864); conditions: for isoTOP-ABPP ratio (R) at liganded lysine Q16864_K6: sol, 231
# T5 construct: isoTOP-ABPP experiments performed in cell lysates (in vitro); endogenous in cells; host or cells: soluble proteome of human cancer cell lines (MDA-MB-231; Ramos and Jurkat also prepared)
# Summary of the method: as §1
# [6] = target: T6, NUDT22 Nucleoside diphosphate-linked moiety X motif 22 (Homo sapiens, UniProt Q9BRQ3); conditions: for isoTOP-ABPP ratio (R) at liganded lysine Q9BRQ3_K60: 50 uM, in vitro, sol, 231; for isoTOP-ABPP ratio, lysine Q9BRQ3_K60: 50 uM_231_sol_in vitro
# T6 construct: isoTOP-ABPP experiments performed in cell lysates (in vitro); endogenous in cells; host or cells: soluble proteome of human cancer cell lines (MDA-MB-231; Ramos and Jurkat also prepared)
# T6 sequence (Q9BRQ3 1-303): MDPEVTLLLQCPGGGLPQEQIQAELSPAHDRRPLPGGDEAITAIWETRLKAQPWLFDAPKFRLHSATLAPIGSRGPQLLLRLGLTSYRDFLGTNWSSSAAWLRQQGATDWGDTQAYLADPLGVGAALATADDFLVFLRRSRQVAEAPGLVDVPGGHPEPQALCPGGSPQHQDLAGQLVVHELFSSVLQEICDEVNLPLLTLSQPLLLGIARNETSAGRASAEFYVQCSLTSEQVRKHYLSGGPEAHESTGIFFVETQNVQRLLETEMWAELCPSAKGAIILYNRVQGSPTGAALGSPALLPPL
# Summary of the method: as §1
# T1 sequence (P60520 1-116 limits assumed): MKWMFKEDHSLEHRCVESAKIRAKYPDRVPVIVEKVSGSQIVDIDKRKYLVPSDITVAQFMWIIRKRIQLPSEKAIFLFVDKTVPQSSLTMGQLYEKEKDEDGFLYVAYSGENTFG
# T5 sequence (Q16864 whole entry): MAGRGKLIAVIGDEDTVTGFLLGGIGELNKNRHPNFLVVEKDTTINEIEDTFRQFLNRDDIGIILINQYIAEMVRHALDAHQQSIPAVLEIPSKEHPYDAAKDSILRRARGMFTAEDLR
# T3 sequence (P20839 whole entry): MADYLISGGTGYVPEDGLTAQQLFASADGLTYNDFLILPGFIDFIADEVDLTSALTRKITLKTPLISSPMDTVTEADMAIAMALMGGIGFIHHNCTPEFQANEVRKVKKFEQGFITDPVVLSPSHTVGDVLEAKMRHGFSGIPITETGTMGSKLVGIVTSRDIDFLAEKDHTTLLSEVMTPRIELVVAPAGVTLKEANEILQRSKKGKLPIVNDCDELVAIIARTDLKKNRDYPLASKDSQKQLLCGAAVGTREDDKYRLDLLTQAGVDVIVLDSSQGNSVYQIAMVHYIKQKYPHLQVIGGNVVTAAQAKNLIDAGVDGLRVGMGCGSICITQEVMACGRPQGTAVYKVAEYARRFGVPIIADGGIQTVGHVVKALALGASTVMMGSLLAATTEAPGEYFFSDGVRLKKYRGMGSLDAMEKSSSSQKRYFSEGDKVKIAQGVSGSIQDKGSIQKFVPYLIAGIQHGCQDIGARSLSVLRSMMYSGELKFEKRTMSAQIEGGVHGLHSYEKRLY
smiles,measurement,setting,value
"COc1cc(CCC(=O)Oc2ccc([N+](=O)[O-])cc2[N+](=O)[O-])cc(OC)c1OC [fragment 33, 2,4-Dinitrophenyl 3-(3,4,5-trimethoxyphenyl)propanoate]",isoTOP-ABPP reactivity ratio at lysine P60520_K46,"[1]; 50 uM, 231 sol, in vitro",1.2
same,isoTOP-ABPP reactivity ratio at lysine P24941_K33,"[2]; 50 uM, 231 sol, in vitro",0.7
same,isoTOP-ABPP reactivity ratio at lysine P20839_K208,"[3]; 50 uM, 231 sol, in vitro",1.2
same,isoTOP-ABPP reactivity ratio at lysine P42330_K270,"[4]; 50 uM, 231 sol, in vitro",1.0
same,isoTOP-ABPP reactivity ratio at lysine Q16864_K6,"[5]; 50 uM, 231 sol, in vitro",0.8
"O=C(Oc1ccc([N+](=O)[O-])cc1[N+](=O)[O-])C1CCN(C(=O)OCc2ccccc2)CC1 [fragment 34, 1-Benzyl 4-(2,4-dinitrophenyl) piperidine-1,4-dicarboxylate]",isoTOP-ABPP ratio (R) at liganded lysine P24941_K33,"[2]; 50 uM, in vitro",1.0
same,isoTOP-ABPP ratio (R) at liganded lysine P42330_K270,"[4]; 50 uM, in vitro",1.1
"O=C(Oc1ccc([N+](=O)[O-])cc1[N+](=O)[O-])c1ccc2ccccc2n1 [fragment 35, 2,4-Dinitrophenyl quinoline-2-carboxylate]",isoTOP-ABPP ratio (R) at liganded lysine P60520_K46,"[1]; 50 uM, in vitro",0.9
same,isoTOP-ABPP ratio (R) at liganded lysine P24941_K33,"[2]; 50 uM, in vitro",1.6
same,isoTOP-ABPP ratio (R) at liganded lysine Q9BRQ3_K60,[6],1.1
same,isoTOP-ABPP ratio (R) at liganded lysine P42330_K270,"[4]; 50 uM, in vitro",0.6
"O=C(CCc1coc2cc(F)ccc2c1=O)Oc1ccc([N+](=O)[O-])cc1[N+](=O)[O-] [fragment 36, 2,4-Dinitrophenyl 3-(7-fluoro-4-oxo-4H-chromen-3-yl)propanoate]",isoTOP-ABPP ratio (R) at liganded lysine P20839_K208,"[3]; 50 uM, in vitro",1.6
same,isoTOP-ABPP ratio (R) at liganded lysine P42330_K270,"[4]; 50 uM, in vitro",0.6
same,isoTOP-ABPP ratio (R) at liganded lysine Q16864_K6,"[5]; 50 uM, in vitro",1.0
"O=C(Oc1ccc([N+](=O)[O-])cc1[N+](=O)[O-])c1ccc(Oc2ccccc2)cc1 [fragment 39, 2,4-Dinitrophenyl 4-phenoxybenzoate]",isoTOP-ABPP ratio (R) at liganded lysine P60520_K46,"[1]; 50 uM, in vitro",0.8
same,isoTOP-ABPP ratio (R) at liganded lysine P24941_K33,"[2]; 50 uM, in vitro",1.0
same,isoTOP-ABPP ratio (R) at liganded lysine Q9BRQ3_K60,[6],0.9
same,isoTOP-ABPP ratio (R) at liganded lysine P42330_K270,"[4]; 50 uM, in vitro",0.8
same,isoTOP-ABPP ratio (R) at liganded lysine Q16864_K6,"[5]; 50 uM, in vitro",0.9
"O=C(Oc1ccc([N+](=O)[O-])cc1[N+](=O)[O-])c1ccccc1Nc1cccc(C(F)(F)F)c1 [fragment 40, 2,4-Dinitrophenyl 2-((3-(trifluoromethyl)phenyl)amino)benzoate]",isoTOP-ABPP ratio (R) at liganded lysine P24941_K33,"[2]; 50 uM, in vitro",1.0
same,isoTOP-ABPP ratio (R) at liganded lysine Q9BRQ3_K60,[6],0.9
same,isoTOP-ABPP ratio (R) at liganded lysine P42330_K270,"[4]; 50 uM, in vitro",2.2
same,isoTOP-ABPP ratio (R) at liganded lysine Q16864_K6,"[5]; 50 uM, in vitro",0.9
"CC(=O)Oc1ccc([N+](=O)[O-])cc1[N+](=O)[O-] [fragment 43, 2,4-Dinitrophenyl acetate]",isoTOP-ABPP ratio (R) at liganded lysine P20839_K208,"[3]; 50 uM, in vitro",1.3
same,isoTOP-ABPP ratio (R) at liganded lysine Q16864_K6,"[5]; 50 uM, in vitro",20.0
"N#Cc1ccc(C(=O)Oc2ccc([N+](=O)[O-])cc2[N+](=O)[O-])cc1 [fragment 44, 2,4-Dinitrophenyl 4-cyanobenzoate]","isoTOP-ABPP ratio, lysine P60520_K46",[1]; 50 uM_231_sol_in vitro,0.9
same,"isoTOP-ABPP ratio, lysine P24941_K33",[2],1.1
same,"isoTOP-ABPP ratio, lysine P42330_K270",[4]; 50 uM_231_sol_in vitro,0.5
same,"isoTOP-ABPP ratio, lysine Q16864_K6",[5]; 50 uM_231_sol_in vitro,1.2
"O=C(ON1C(=O)CCC1=O)c1cc(C(F)(F)F)cc(C(F)(F)F)c1 [fragment 46, 3,5-Bis(trifluoromethyl)benzoic acid NHS ester]","isoTOP-ABPP ratio, lysine P24941_K33",[2],0.9
same,"isoTOP-ABPP ratio, lysine Q9BRQ3_K60",[6],0.9
same,"isoTOP-ABPP ratio, lysine Q16864_K6",[5]; 50 uM_231_sol_in vitro,20.0
"O=C(Oc1c(F)c(F)c(C(F)(F)F)c(F)c1F)c1cc(C(F)(F)F)cc(C(F)(F)F)c1 [fragment 47, 2,3,5,6-Tetrafluoro-4-(trifluoromethyl)phenyl 3,5-bis(trifluoromethyl)benzoate]","isoTOP-ABPP ratio, lysine P60520_K46",[1]; 50 uM_231_sol_in vitro,1.0
same,"isoTOP-ABPP ratio, lysine Q9BRQ3_K60",[6],1.1
same,"isoTOP-ABPP ratio, lysine P20839_K208",[3]; 50 uM_231_sol_in vitro,1.2
same,"isoTOP-ABPP ratio, lysine P42330_K270",[4]; 50 uM_231_sol_in vitro,2.5
"O=C(Oc1c(F)c(F)cc(F)c1F)c1cc(C(F)(F)F)cc(C(F)(F)F)c1 [fragment 48, 2,3,5,6-Tetrafluorophenyl 3,5-bis(trifluoromethyl)benzoate]","isoTOP-ABPP ratio, lysine P60520_K46",[1]; 50 uM_231_sol_in vitro,0.9
"COC(=O)NC(=NC(=O)OCC1c2ccccc2-c2ccccc21)n1cccn1 [fragment 49, N-Methoxycarbonyl-N′-9-fluorenylmethoxycarbonyl-pyrazole-1-carboxamidine]","isoTOP-ABPP ratio, lysine P60520_K46",[1]; 100 uM_231_sol_in vitro,1.9
same,"isoTOP-ABPP ratio, lysine P20839_K208",[3]; 100 uM_231_sol_in vitro,4.4
same,"isoTOP-ABPP ratio, lysine P42330_K270",[4]; 100 uM_231_sol_in vitro,0.8
same,"isoTOP-ABPP ratio, lysine Q16864_K6",[5]; 100 uM_231_sol_in vitro,1.3
"NC(=O)c1cc(C(F)(F)F)cc(C(F)(F)F)c1 [fragment 51, reference compound]","isoTOP-ABPP ratio, lysine P60520_K46",[1]; 50 uM_231_sol_in vitro,1.0
same,"isoTOP-ABPP ratio, lysine P42330_K270",[4]; 50 uM_231_sol_in vitro,0.8
